# Measurements as given in patent publication US20130072874A1, “DEVICE HAVING ARRAY PROVIDED WITH FINE PROTRUSIONS” (HISAMITSU PHARMACEUTICAL CO., INC., priority 2010, published 2013).
# Tested on: shaved dorsal portion of each guinea pig
# Experiment: Suppression of UVB-induced pigmentation, serum applied in advance then device
# Type: in vivo
# Conditions: serum 80 μL (20 μL/cm^2) applied, then 150 μm array device; from the 4th day of device application onward
# Procedure: A serum containing 4-(4-hydroxyphenyl)-2-butanol as an active ingredient solution was applied at 80 μL (20 μL/cm^2) to the shaved dorsal portion of each guinea pig, and then, a device having an array provided with microprotrusions was prepared for the purpose of stretching the skin by the microprotrusions of the array. The array was made of polylactic acid as a material and was of 150 μm as the length of the protrusions, 841 protrusions/cm^2 as the density of the protrusions, and 1 cm^2 as the area, and for a device, the array was fixed onto a covering member (holding member) prepared by stacking a rubber-based pressure-sensitive adhesive layer onto a support (3 cm×5 cm) made of nonwoven fabric.
structure (smiles),measurement,value
CC(O)CCc1ccc(O)cc1 (stereo not shown) [4-(4-hydroxyphenyl)-2-butanol],effect of suppressing pigmentation attributed to UVB irradiation,effect of suppressing pigmentation attributed to UVB irradiation was observed
